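Assay format: 96-well plates, 48-hour exposure. GI50 = concentration required for 50% inhibition of growth.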 Activity calls are given as the source filed them. Cut-off read from the data, not from the text of the source: active = GI50 up to about 1.1 µM and inactive = higher.
What was measured:
Assay in all cases: NCI tumour cell line growth inhibition, 48 h
MDA-N = system: MDA-N
SK-MEL-2 = system: SK-MEL-2
SN12C = system: SN12C
MOLT-4 = system: MOLT-4
OVCAR-3 = system: OVCAR-3
SF-295 = system: SF-295
UACC-62 = system: UACC-62
SK-MEL-28 = system: SK-MEL-28
MDA-MB-231 = system: MDA-MB-231
IGROV-1 = system: IGROV-1
SNB-75 = system: SNB-75
TK-10 = system: TK-10
PC-3 = system: PC-3
NCI-H460 = system: NCI-H460
DU-145 = system: DU-145
A498 = system: A498
UACC-257 = system: UACC-257
SW-620 = system: SW-620
Malme-3M = system: Malme-3M
SF-539 = system: SF-539

Row | SMILES | GI50 (MDA-N) | GI50 (SK-MEL-2) | GI50 (SN12C) | GI50 (MOLT-4) | GI50 (OVCAR-3) | GI50 (SF-295) | GI50 (UACC-62) | GI50 (SK-MEL-28) | GI50 (MDA-MB-231) | GI50 (IGROV-1) | GI50 (SNB-75) | GI50 (TK-10) | GI50 (PC-3) | GI50 (NCI-H460) | GI50 (DU-145) | GI50 (A498) | GI50 (UACC-257) | GI50 (SW-620) | GI50 (Malme-3M) | GI50 (SF-539)
1 | CC/C=C\C/C=C\C/C=C\CCCCCCCC(=O)OC(COC(=O)CCCCCCCCCCCCCCCCC)COC1OC(CO)C(O)C(O)C1O (configuration not stated) | > 25 µM (inactive) | > 25 µM (inactive) | > 25 µM (inactive) | > 25 µM (inactive) | 7.74 µM (inactive) | > 25 µM (inactive) | > 25 µM (inactive) | > 25 µM (inactive) | > 25 µM (inactive) | 12.3 µM (inactive) | > 25 µM (inactive) | > 25 µM (inactive) | 22.8 µM (inactive) | > 25 µM (inactive) | > 25 µM (inactive) | > 25 µM (inactive) | > 25 µM (inactive) | > 25 µM (inactive) | – | –
2 | CCCCCC1CC=CC(=O)O1 (configuration not stated) | 6.15 µM (inactive) | 6.84 µM (inactive) | 6.73 µM (inactive) | 2.25 µM (inactive) | 10.5 µM (inactive) | 11.5 µM (inactive) | 11.5 µM (inactive) | 4.51 µM (inactive) | 10.6 µM (inactive) | 2.94 µM (inactive) | – | 11.6 µM (inactive) | 3.78 µM (inactive) | 11 µM (inactive) | 17.4 µM (inactive) | 26.1 µM (inactive) | 14.1 µM (inactive) | 4.1 µM (inactive) | 0.933 µM (active) | 1.32 µM (inactive)
3 | CC(C)=NNc1cnnc2ccc([N+](=O)[O-])cc12 | 47.2 µM (inactive) | > 100 µM (inactive) | 36.1 µM (inactive) | 37.2 µM (inactive) | – | > 100 µM (inactive) | – | – | 59.7 µM (inactive) | 21.4 µM (inactive) | 58.9 µM (inactive) | – | > 100 µM (inactive) | 33.3 µM (inactive) | > 100 µM (inactive) | – | > 100 µM (inactive) | > 100 µM (inactive) | 63.8 µM (inactive) | > 100 µM (inactive)
4 | CC(C)OC(=O)c1ccc(NCC2=CC(=O)C=CC2=O)cc1Cl | 8.39 µM (inactive) | 31.7 µM (inactive) | 16.1 µM (inactive) | 3.72 µM (inactive) | 10.4 µM (inactive) | 17.8 µM (inactive) | 13.2 µM (inactive) | 17.2 µM (inactive) | 16.4 µM (inactive) | 11.5 µM (inactive) | 15.8 µM (inactive) | 15.7 µM (inactive) | 8.3 µM (inactive) | 19.2 µM (inactive) | 18.3 µM (inactive) | 16.3 µM (inactive) | 16.1 µM (inactive) | 11.5 µM (inactive) | – | 12 µM (inactive)
5 | Fc1cccc2nc(-c3ccccc3)cc(OCc3ccccc3)c12 | > 100 µM (inactive) | > 100 µM (inactive) | > 100 µM (inactive) | > 100 µM (inactive) | > 100 µM (inactive) | > 100 µM (inactive) | > 100 µM (inactive) | > 100 µM (inactive) | > 100 µM (inactive) | > 100 µM (inactive) | 65.6 µM (inactive) | > 100 µM (inactive) | > 100 µM (inactive) | > 100 µM (inactive) | > 100 µM (inactive) | > 100 µM (inactive) | > 100 µM (inactive) | > 100 µM (inactive) | > 100 µM (inactive) | –
6 | CC1(C)CC[C@]2(C(=O)O)CC[C@]3(C)C(=CC[C@@H]4[C@@]5(C)CC[C@H](OC6OC(CO)C(O)C(O)C6OC6OC(CO)C(O)C(O)C6O)C(C)(C)[C@@H]5CC[C@]43C)[C@@H]2C1 (some centres not stated) | 19.6 µM (inactive) | 0.0509 µM (active) | 18.2 µM (inactive) | 22.5 µM (inactive) | 15.7 µM (inactive) | 18.8 µM (inactive) | 19.3 µM (inactive) | 14.6 µM (inactive) | 26.4 µM (inactive) | 18.9 µM (inactive) | 21.6 µM (inactive) | – | 17 µM (inactive) | 21 µM (inactive) | 17.2 µM (inactive) | 18.5 µM (inactive) | 20.1 µM (inactive) | 22.5 µM (inactive) | 15.5 µM (inactive) | –
7 | COc1ccc(C(OCC2OC(n3ccc(Oc4c(F)c(F)c(F)c(F)c4F)nc3=O)CC2OP(OCCC#N)N(C(C)C)C(C)C)(c2ccccc2)c2ccc(OC)cc2)cc1 (configuration not stated) | > 100 µM (inactive) | > 100 µM (inactive) | > 100 µM (inactive) | > 100 µM (inactive) | > 100 µM (inactive) | > 100 µM (inactive) | > 100 µM (inactive) | > 100 µM (inactive) | > 100 µM (inactive) | > 100 µM (inactive) | > 100 µM (inactive) | > 100 µM (inactive) | > 100 µM (inactive) | > 100 µM (inactive) | > 100 µM (inactive) | > 100 µM (inactive) | > 100 µM (inactive) | > 100 µM (inactive) | – | > 100 µM (inactive)

Source: ChEMBL document CHEMBL1201862, “PubChem BioAssay data set” (2004)
